Values joined by “and” are separate entries in the source; they are usually repeats but may differ in a detail not shown here. Equal values may be shown once. Toxic doses and inconclusive results are not listed.

The subject of the experiment is CD2F1 mice, L1210 leukemia ip, survival T/C. The experiment is described as follows: NCI In Vivo Anticancer Drug Screen. Data for tumor model L1210 Leukemia (intraperitoneal) in CD2F1 (CDF1) mice. The following applies: endpoint: mean survival time, higher = longer survival. An outline of the steps:
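Activity against a transplanted murine tumor was judged by comparing the compound group with a vehicle group. The outcome in the treated animals was divided by that in the controls.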

The mark [1] stands for this setting: dose: 100.0 mg/kg/injection, schedule: Q04DX002 (ip), vehicle: saline with Tween-80.
Where [2] appears, read: dose: 400.0 mg/kg/injection, schedule: Q04DX002 (ip), vehicle: saline with Tween-80.
The mark [3] stands for this setting: dose: 25.0 mg/kg/injection, schedule: Q04DX002 (ip), vehicle: saline with Tween-80.
The mark [4] stands for this setting: dose: 50.0 mg/kg/injection, schedule: Q04DX002 (ip), vehicle: saline with Tween-80.
Setting [5] is: dose: 75.0 mg/kg/injection, schedule: Q01DX001 (ip), vehicle: saline.

As for `CS(=O)(=O)OCCC(=O)N1CCN(C(=O)CCOS(C)(=O)=O)CC1`, the T/C was 97 % of control (dose: 4.0 mg/kg/injection, schedule: Q03HX024 (oral), vehicle: saline); 120 % of control (dose: 8.0 mg/kg/injection, schedule: Q03HX008 (ip), vehicle: saline); 93 % of control (dose: 8.0 mg/kg/injection, schedule: Q03HX008 (oral), vehicle: saline); 94 % of control (dose: 8.0 mg/kg/injection, schedule: Q03HX016 (oral), vehicle: saline); 100 % of control (dose: 8.0 mg/kg/injection, schedule: Q03HX024 (oral), vehicle: saline); 101 % of control (dose: 16.0 mg/kg/injection, schedule: Q01DX009 (oral), vehicle: saline). Moreover, the T/C was 96 % of control (dose: 16.0 mg/kg/injection, schedule: Q03HX008 (oral), vehicle: saline); 169 % of control (dose: 16.0 mg/kg/injection, schedule: Q03HX016 (ip), vehicle: saline); 100 % of control (dose: 16.0 mg/kg/injection, schedule: Q03HX016 (oral), vehicle: saline); 200 % of control (dose: 16.0 mg/kg/injection, schedule: Q03HX024 (ip), vehicle: saline); 109 % of control (dose: 16.0 mg/kg/injection, schedule: Q03HX024 (oral), vehicle: saline); 165 % of control (dose: 32.0 mg/kg/injection, schedule: Q01DX009 (ip), vehicle: saline). In addition, the T/C by setting is: (dose: 32.0 mg/kg/injection, schedule: Q01DX009 (oral), vehicle: saline) 103 % of control; (dose: 32.0 mg/kg/injection, schedule: Q03HX008 (ip), vehicle: saline) 182 % of control; (dose: 32.0 mg/kg/injection, schedule: Q03HX008 (oral), vehicle: saline) 102 % of control; (dose: 32.0 mg/kg/injection, schedule: Q03HX016 (ip), vehicle: saline) 207 % of control; (dose: 32.0 mg/kg/injection, schedule: Q03HX016 (oral), vehicle: saline) 95 % of control; (dose: 32.0 mg/kg/injection, schedule: Q03HX024 (ip), vehicle: saline) 168 % of control. The T/C runs as follows: (dose: 32.0 mg/kg/injection, schedule: Q03HX024 (oral), vehicle: saline) 114 % of control; (dose: 32.0 mg/kg/injection, schedule: Q04DX003 (oral), vehicle: saline) 100 % of control; (dose: 64.0 mg/kg/injection, schedule: Q01DX001 (oral), vehicle: saline) 98 % of control; (dose: 64.0 mg/kg/injection, schedule: Q01DX009 (ip), vehicle: saline) 208 % of control; (dose: 64.0 mg/kg/injection, schedule: Q01DX009 (oral), vehicle: saline) 105 % of control; (dose: 64.0 mg/kg/injection, schedule: Q03HX008 (oral), vehicle: saline) 106 % of control. For the same compound, the T/C reads like this: (dose: 64.0 mg/kg/injection, schedule: Q03HX016 (ip), vehicle: saline) 103 % of control; (dose: 64.0 mg/kg/injection, schedule: Q03HX016 (oral), vehicle: saline) 97 % of control; (dose: 64.0 mg/kg/injection, schedule: Q04DX003 (oral), vehicle: saline) 105 % of control; (dose: 64.0 mg/kg/injection, schedule: Q08DX002 (oral), vehicle: saline) 92 % of control; (dose: 128.0 mg/kg/injection, schedule: Q01DX001 (oral), vehicle: saline) 98 % of control; (dose: 128.0 mg/kg/injection, schedule: Q01DX009 (ip), vehicle: saline) 124 % of control. Besides, the T/C is, setting by setting: (dose: 128.0 mg/kg/injection, schedule: Q01DX009 (oral), vehicle: saline) 110 % of control; (dose: 128.0 mg/kg/injection, schedule: Q04DX003 (ip), vehicle: saline) 193 % of control; (dose: 128.0 mg/kg/injection, schedule: Q04DX003 (oral), vehicle: saline) 95 % of control; (dose: 128.0 mg/kg/injection, schedule: Q08DX002 (ip), vehicle: saline) 194 % of control; (dose: 128.0 mg/kg/injection, schedule: Q08DX002 (oral), vehicle: saline) 90 % of control; (dose: 256.0 mg/kg/injection, schedule: Q01DX001 (ip), vehicle: saline) 166 % of control. Besides, the T/C is, setting by setting: (dose: 256.0 mg/kg/injection, schedule: Q01DX001 (oral), vehicle: saline) 94 % of control; (dose: 256.0 mg/kg/injection, schedule: Q01DX009 (oral), vehicle: saline) 110 % of control; (dose: 256.0 mg/kg/injection, schedule: Q04DX003 (ip), vehicle: saline) 181 % of control; (dose: 256.0 mg/kg/injection, schedule: Q04DX003 (oral), vehicle: saline) 100 % of control; (dose: 256.0 mg/kg/injection, schedule: Q08DX002 (ip), vehicle: saline) 228 % of control; (dose: 256.0 mg/kg/injection, schedule: Q08DX002 (oral), vehicle: saline) 96 % of control. The T/C (dose: 512.0 mg/kg/injection, schedule: Q01DX001 (ip), vehicle: saline) was 89 % of control; the T/C (dose: 512.0 mg/kg/injection, schedule: Q01DX001 (oral), vehicle: saline) was 96 % of control; the T/C (dose: 512.0 mg/kg/injection, schedule: Q04DX003 (ip), vehicle: saline) is 103 % of control; the T/C (dose: 512.0 mg/kg/injection, schedule: Q08DX002 (oral), vehicle: saline) is 94 % of control.

On to `CCNC(C)(C)C(SSSC(c1ccc(Cl)cc1)C(C)(C)NCC)c1ccc(Cl)cc1` (configuration not stated), for which the T/C was 109 % of control (dose: 100.0 mg/kg/injection, schedule: Q04DX003 (ip), vehicle: saline) and 86 % of control (dose: 200.0 mg/kg/injection, schedule: Q04DX003 (ip), vehicle: saline).

`Cc1ccc(S(=O)(=O)OCCCCCOS(=O)(=O)c2ccc(C)cc2)cc1` (tested in a mixture with another compound): the T/C is 102 % of control under setting [1]; 94 % of control (dose: 200.0 mg/kg/injection, schedule: Q04DX002 (ip), vehicle: saline with Tween-80); 94 % of control under setting [2].

As to `c1ccc(N=C2SCCS2)cc1`, the T/C is 93 % of control (dose: 3.13 mg/kg/injection, schedule: Q01DX001 (ip), vehicle: Klucel (hydroxypropylcellulose) (HPC)); 97 % of control (dose: 6.25 mg/kg/injection, schedule: Q01DX001 (ip), vehicle: Klucel (hydroxypropylcellulose) (HPC)); 108 % of control (dose: 12.5 mg/kg/injection, schedule: Q01DX001 (ip), vehicle: Klucel (hydroxypropylcellulose) (HPC)).

Regarding `COc1ccc2c(c1)CCC1C2CCC2(C)C(=O)NC(=O)N12` (configuration not stated), the T/C under setting [3] is 93 % of control; the T/C under setting [4] was 86 % of control; the T/C (dose: 100.0 mg/kg/injection, schedule: Q01DX001 (ip), vehicle: saline with Tween-80) was 86 % of control; the T/C under setting [1] was 86 % of control and 90 % of control; the T/C (dose: 400.0 mg/kg/injection, schedule: Q01DX001 (ip), vehicle: saline with Tween-80) is 93 % of control; the T/C under setting [2] is 86 % of control.

Take `CSC(I)(N(C)C)N(C)C`: the T/C under setting [5] is 98 % of control; the T/C (dose: 150.0 mg/kg/injection, schedule: Q01DX001 (ip), vehicle: saline) was 101 % of control; the T/C (dose: 300.0 mg/kg/injection, schedule: Q01DX001 (ip), vehicle: saline) was 98 % of control.

`CCCCCC(C)NCCO` (configuration not stated): under setting [5], the T/C was 98 % of control.

For `CN1C(=O)/C(=C/c2cccs2)SC1=S`, the T/C was 95 % of control (dose: 100.0 mg/kg/injection, schedule: Q01DX001 (ip), vehicle: saline); 98 % of control (dose: 200.0 mg/kg/injection, schedule: Q01DX001 (ip), vehicle: saline); 103 % of control (dose: 400.0 mg/kg/injection, schedule: Q01DX001 (ip), vehicle: saline).

For the compound `N#CCCN(CCCN1CCOCC1)C(=S)Nc1cccc(C(F)(F)F)c1`, the T/C reads like this: under setting [3], 104 % of control; under setting [4], 98 % of control; under setting [1], 106 % of control.

With `COC1OC(CSC#N)C2OC(C)(C)OC12` (configuration not stated), the T/C (dose: 5.0 mg/kg/injection, schedule: Q01DX001 (ip), vehicle: saline) is 97 % of control; the T/C (dose: 10.0 mg/kg/injection, schedule: Q01DX001 (ip), vehicle: saline) was 101 % of control; the T/C (dose: 20.0 mg/kg/injection, schedule: Q01DX001 (ip), vehicle: saline) was 101 % of control; the T/C (dose: 40.0 mg/kg/injection, schedule: Q01DX001 (ip), vehicle: saline) was 101 % of control.

On to `CCCCCCCCCCCCCCCCCC[N+]1(Cc2ccccc2)CCOCC1`, for which the T/C reads like this: (dose: 25.0 mg/kg/injection, schedule: Q01DX009 (ip), vehicle: saline with Tween-80) 103 % of control; (dose: 50.0 mg/kg/injection, schedule: Q01DX009 (ip), vehicle: saline with Tween-80) 115 % of control; (dose: 100.0 mg/kg/injection, schedule: Q01DX009 (ip), vehicle: saline with Tween-80) 91 % of control and 100 % of control.

These data come from PubChem BioAssay AID256 (DTP/NCI, 2004).
